One experiment concerns SCAD. The experiment in a line: Chemical screening with the SCAD (Scar-in-a-Dish) assay. It is filed as cell-based, mice. The conditions noted are these: 2.5 μM final concentration. From the text: Dorsal skins were collected from C57BL/6J or En1^Cre;R26^mTmG or En1^e;R26^VT2/GK3 mice at different ages as indicated, and washed twice with cold DMEM/F12 (Thermo Fisher Scientific 11320074) medium to remove contaminating blood, and washed once with Hank's Balanced Salt Solution (HBSS, Thermo Fisher Scientific 14175095). After careful removal of non-skin tissue at the ventral side with a surgical scalpel, round full-thickness skin pieces were created with disposable Ø 2 mm biopsy punch (Stiefel 270130), and cultured in 300 μl of DMEM/F12 medium containing 10% FBS, 1× GlutaMAX (Thermo Fisher Scientific 35050038), 1× Penicillin/streptomycin (Thermo Fisher Scientific 15140122), and 1× MEM non-essential amino acids (Thermo Fisher Scientific 11140035) in each well of 96-well plates in a humidified 37° C., 5% CO2 incubator. (Note: the 2 mm skin pieces were cultured in medium but not floating at the liquid air surface). Fresh medium was supplied every second day and the skin tissues were harvested at the indicated time points (day 1 to day 5 after culture), with the fresh tissues serving as day 0 control, and fixed in 2% PFA for overnight at 4° C.
D0 SCADs (see Example 2) were first treated with Nefopam from Prestwick chemical library (FDA approved library). The initial concentration of the chemical in library format is 1 mM, dissolved in DMSO. The final concentration of chemical used in FDA-library is 2.5 μM.
All chemicals in the library are the same (1 mM), and they are added by a robot, eg. 0.5 μl chemical per well of 200 μl culture to make 2.5 μM final concentration. SCAD biopsies were prepared in 96-well plate with 200 μl per well, the automated system was used to add the chemical Nefopam.
All the data were compiled on excel sheets and scores were added based on the visual variability observed when compared to the DMSO and media control D5 SCADs.
The chemical Nefopam was selected (see Example 7) and further analyzed on SCAD (see Example 2). The treatment was done in triplicates.

For the next experiment, the system named is scar formation. The conditions noted are these: stated as known; inhibitor of scar development; cited from earlier work.

Structures can show the parent of a compound that is named as a salt.

The values that follow come from patent US20210096127A1, “MEANS AND METHODS FOR MONITORING SCAR DEVELOPMENT” (HELMHOLTZ ZENTRUM MÜNCHEN - DEUTSCHES FORSCHUNGSZENTRUM FÜR …, priority 2018, published 2021).

For the molecule `CN1CCOC(c2ccccc2)c2ccccc2C1` (stereo not shown) [Prestw-229, Nefopam hydrochloride], the “collagen formation in SCAD sections” value with SCAD (D5 SCAD sections, compared to control SCAD) is “significantly less”. Also, the “scar formation in the whole-mount image” value in the experiment with SCAD (D5 SCAD, 96-well plate, triplicates, compared to control (media treated) SCAD) was “visually less scar formation”. Further, in the experiment with SCAD (D5 SCAD, FIG. 7), the scar development entry is “visible reduction of scar development”. The “scar formation (known effect, positive control)” value with scar formation is on record as “known to reduce scar formation”.
